Measured values from patent US8822430B2 (Gilead Sciences, Inc., priority 2009, dated 2014).

Tested on: HCV 1b RLuc cells (dicistronic genotype 1b Con1 replicon)
Experiment: Renilla luciferase (RLuc)-based HCV replicon reporter assay
Format: cell-based, HCV genotype 1b
Conditions: Hepatitis C virus, 72 h, HCV 1b RLuc replicon, 72 hours; read-out: Activity (antiviral potency [EC50])
Experimental: Antiviral potency (EC50) was determined using a Renilla luciferase (RLuc)-based HCV replicon reporter assay. To perform the assay, HCV 1b RLuc cells (harboring a dicistronic genotype 1b Con1 replicon that encodes a RLuc reporter), or HCV 1a RLuc cells (harboring a dicistronic genotype 1a H77 replicon that encodes a RLuc reporter), were dispensed into 384-well plates. Compounds were re-suspended in DMSO at a concentration of 10 mM and serially diluted in DMSO using an automated pipeting instrument. Serially diluted compounds were mixed with cell culture media and added to the seeded cells. DMSO was used as a negative (solvent) control, and the protease inhibitor ITMN-191 was included at a concentration >100×EC50 as a positive control. 72 hours later, cells were lysed and Renilla luciferase activity quantified as recommended by the manufacturer (Promega-Madison, Wis.). Non-linear regression was performed to calculate EC50 values.
Biological data (antiviral potency [EC50] was determined using a Renilla luciferase (RLuc)-based HCV replicon reporter assay—HCV 1b RLuc) for representative compounds of the invention is provided in the following table. These compounds can be prepared using procedures similar to those described above.

`COC(=O)N[C@H](C(=O)N1CCC[C@H]1C(=O)Nc1ccc(CCc2ccc(NC(=O)[C@@H]3CCCN3C(=O)[C@@H](NC(=O)OC)C(C)C)cc2)cc1)C(C)C` showed an EC50 of 0.264 nM.

`COC(=O)N[C@H](C(=O)N1CCC[C@H]1c1ncc(-c2ccc(-n3ccc(-c4cnc([C@@H]5CCCN5C(=O)[C@@H](NC(=O)OC)C(C)C)[nH]4)cc3=O)cc2)[nH]1)C(C)C` showed an EC50 of 38.1 nM.

With `COC(=O)N[C@H](C(=O)N1CCC(c2ncc(-c3ccc(-c4ccc(-c5cnc([C@@H]6CCCN6C(=O)[C@@H](NC(=O)OC)C(C)C)[nH]5)cc4)cc3)[nH]2)C1)C(C)C` (some centres unmarked) the EC50 was 0.775 nM.

Work on `COC(=O)N[C@H](C(=O)N1CCC[C@H]1c1ncc(-c2ccc(-c3cnc([C@@H]4CCCN4C(=O)[C@@H](NC(=O)OC)C(C)C)[nH]3)cc2)[nH]1)C(C)C` yielded an EC50 of 1.22 nM.

In the case of `COC(=O)N[C@H](C(=O)N1CCC[C@H]1c1ncc(C#Cc2ccc(-c3ccc4nc([C@@H]5CCCN5C(=O)[C@@H](NC(=O)OC)C(C)C)[nH]c4c3)cc2)[nH]1)C(C)C`, the EC50 is reported as 0.0168 nM.

`COC(=O)N[C@H](C(=O)N1CCC[C@H]1c1ncc(-c2ccc3c(c2)CN(C)C(=O)c2cc(-c4cnc([C@@H]5CCCN5C(=O)[C@@H](NC(=O)OC)C(C)C)[nH]4)ccc2-3)[nH]1)C(C)C` gave an EC50 of 2.14 nM.

In the case of `COC(=O)N[C@H](C(=O)N1CCC[C@H]1c1ncc(-c2ccc(-c3ccn(-c4cnc([C@@H]5CCCN5C(=O)[C@@H](NC(=O)OC)C(C)C)[nH]4)c(=O)c3)cc2)[nH]1)C(C)C`, the EC50 is reported as 15.9 nM.

In the case of `COC(=O)N[C@H](C(=O)N1CCC[C@H]1c1ncc(-c2ccc(-c3ccc(-c4cnc([C@@H]5CN(S(=O)(=O)c6ccccc6)CN5C(=O)[C@@H](NC(=O)OC)C(C)C)[nH]4)cc3)cc2)[nH]1)C(C)C`, the EC50 is reported as 0.0788 nM.

For `COC(=O)N[C@H](C(=O)N1CCC[C@H]1c1ncc(-c2ccc(-c3ccc(-c4ccc5nc([C@@H]6CCCN6C(=O)[C@@H](NC(=O)OC)C(C)C)[nH]c5c4)cc3)cc2)[nH]1)C(C)C`, the EC50 was 0.0054 nM.

Work on `COC(=O)N[C@H](C(=O)N1CCC[C@H]1c1ncc(-c2ccc(-c3ccc(-c4ccc5nc([C@@H]6CCCN6C(=O)[C@@H](NC(=O)OC)C(C)C)[nH]c5c4)s3)cc2)[nH]1)C(C)C` yielded an EC50 of 0.003 nM.

Work on `COC(=O)N[C@H](C(=O)N1CCC[C@H]1c1ncc(C#Cc2ccc(C#Cc3cnc([C@@H]4CCCN4C(=O)[C@@H](NC(=O)OC)C(C)C)[nH]3)cc2)[nH]1)C(C)C` yielded an EC50 of 0.0474 nM.

`COC(=O)N[C@H](C(=O)N1CCC[C@H]1c1ncc(-c2ccc(-c3ccc(-c4cnc(CN5CCC[C@@H](NC(=O)OC(C)(C)C)C5=O)[nH]4)cc3)cc2)[nH]1)C(C)C` was tested, and the EC50 was 0.0345 nM.

Molecule `COC(=O)N[C@H](C(=O)N1CCC[C@H]1c1ncc(-c2ccc(-c3ccc(-c4cnc(CN5CCC[C@@H](N)C5=O)[nH]4)cc3)cc2)[nH]1)C(C)C` has an EC50 of 7.55 nM.

For `COC(=O)N[C@H](C(=O)N1CCC[C@H]1c1ncc(-c2ccc(-c3ccc(-c4cnc(CN5CCC[C@@H](NC(=O)OC)C5=O)[nH]4)cc3)cc2)[nH]1)C(C)C`, the EC50 was 0.239 nM.

`COC(=O)N[C@H](C(=O)N1CCC[C@H]1c1ncc(C#Cc2cccc3c(C#Cc4cnc([C@@H]5CCCN5C(=O)[C@@H](NC(=O)OC)C(C)C)[nH]4)cccc23)[nH]1)C(C)C` showed an EC50 of 0.0142 nM.

With `COC(=O)N[C@H](C(=O)N1CN(C(=O)OC(C)(C)C)C[C@H]1C(=O)NCC(=O)c1ccc(-c2ccc(-c3cnc([C@@H]4CCCN4C(=O)[C@@H](NC(=O)OC)C(C)C)[nH]3)cc2)cc1)C(C)C` the EC50 was 3.41 nM.

`COC(=O)N[C@H](C(=O)N1CCC[C@H]1c1ncc(C#Cc2ccc(-c3ccc(-c4cnc([C@@H]5CCCN5C(=O)[C@@H](NC(=O)OC)C(C)C)[nH]4)cc3)cc2)[nH]1)C(C)C` showed an EC50 of 0.0115 nM.

With `COC(=O)N[C@H](C(=O)N1CCC[C@H]1c1nc(C(=O)N2CCC3(CC2)CCN(C(=O)c2c[nH]c([C@@H]4CCCN4C(=O)[C@@H](NC(=O)OC)C(C)C)n2)CC3)c[nH]1)C(C)C` the EC50 was > 44.4 nM.

With `COC(=O)N[C@H](C(=O)N1CCC[C@H]1c1ncc(C(=O)N2CCN(c3ccc(-c4cnc([C@@H]5CCCN5C(=O)[C@@H](NC(=O)OC)C(C)C)[nH]4)cc3)CC2)[nH]1)C(C)C` the EC50 was > 44.4 nM.

`COC(=O)N[C@H](C(=O)NC1(c2ncc(-c3ccc(-c4ccc(-c5cnc([C@@H]6CCCN6C(=O)[C@@H](NC(=O)OC)C(C)C)[nH]5)cc4)cc3)[nH]2)CCC1)C(C)C` gave an EC50 of 0.0184 nM.

`COC(=O)N[C@H](C(=O)N1CCC[C@H]1C1=NC(=O)C(C)(c2ccc(-c3ccc(-c4cnc([C@@H]5CCCN5C(=O)[C@@H](NC(=O)OC)C(C)C)[nH]4)cc3)cc2)N1)C(C)C` (some centres unmarked) was tested, and the EC50 was > 44.4 nM.

With `COC(=O)N[C@H](C(=O)N1CCC[C@H]1c1nc2ccc(-c3ccc(-c4ccc5nc([C@@H]6CCCN6C(=O)[C@@H](NC(=O)OC)C(C)C)[nH]c5c4)s3)cc2[nH]1)C(C)C` the EC50 was 0.0103 nM.

Work on `COC(=O)N[C@H](C(=O)NC1(c2ncc(-c3ccc(-c4ccc(-c5cnc([C@@H]6CCCN6C(=O)[C@@H](NC(=O)OC)C(C)C)[nH]5)cc4)cc3)[nH]2)CC1)C(C)C` yielded an EC50 of 0.0865 nM.

For `COC(=O)N[C@H](C(=O)N1CCC[C@H]1C(=O)Nc1ccc(-c2ccc(-c3ccc(-c4cnc([C@@H]5CCCN5C(=O)[C@@H](NC(=O)OC)C(C)C)[nH]4)cc3)cc2)cc1)C(C)C`, the EC50 was 0.0875 nM.

`COC(=O)N[C@H](C(=O)N1CCC[C@H]1c1ncc(-c2ccc3c(c2)CCc2cc(-c4cnc([C@@H]5CCCN5C(=O)[C@@H](NC(=O)OC)C(C)C)[nH]4)ccc2-3)[nH]1)C(C)C` showed an EC50 of 0.0099 nM.

`COC(=O)N[C@H](C(=O)N1CCC[C@H]1c1ncc(-c2ccc3cc4cc(-c5cnc([C@@H]6CCCN6C(=O)[C@@H](NC(=O)OC)C(C)C)[nH]5)ccc4cc3c2)[nH]1)C(C)C` was tested, and the EC50 was 0.007 nM.

For `COC(=O)N[C@H](C(=O)N1CCC[C@H]1c1nc2ccc(C#Cc3ccc4nc([C@@H]5CCCN5C(=O)[C@@H](NC(=O)OC)C(C)C)[nH]c4c3)cc2[nH]1)C(C)C`, the EC50 was 0.139 nM.

In the case of `COC(=O)N[C@H](C(=O)N1CCC[C@H]1c1ncc(-c2ccc3c(c2)Cc2cc(-c4cnc([C@@H]5CCCN5C(=O)[C@@H](NC(=O)OC)C(C)C)[nH]4)ccc2-3)[nH]1)C(C)C`, the EC50 is reported as 0.0137 nM.

`COC(=O)N[C@H](C(=O)N1CCC[C@H]1c1ncc(-c2ccc(-c3ccc(-c4cnc([C@@H]5CN(C(=O)OC)CN5C(=O)[C@@H](NC(=O)OC)C(C)C)[nH]4)cc3)cc2)[nH]1)C(C)C` gave an EC50 of 0.03 nM.

`COC(=O)N[C@H](C(=O)N1CCC[C@H]1c1ncc(-c2ccc3c(c2)C(=O)c2cc(-c4cnc([C@@H]5CCCN5C(=O)[C@@H](NC(=O)OC)C(C)C)[nH]4)ccc2-3)[nH]1)C(C)C` showed an EC50 of 0.0184 nM.

`COC(=O)N[C@H](C(=O)N1CCC[C@H]1c1ncc(-c2ccc(/C=C/c3ccc(-c4cnc([C@@H]5CCCN5C(=O)[C@@H](NC(=O)OC)C(C)C)[nH]4)cc3)cc2)[nH]1)C(C)C` was tested, and the EC50 was 0.0264 nM.

Work on `COC(=O)N[C@H](C(=O)N1CCC[C@H]1c1ncc(-c2ccc(-c3ccc(-c4cnc([C@@H]5CCCN5C(=O)[C@@H](NC(=O)OC)C(C)(C)S(C)(=O)=O)[nH]4)cc3)cc2)[nH]1)C(C)C` yielded an EC50 of 0.161 nM.

Molecule `COC(=O)N[C@H](C(=O)N1CCC[C@H]1c1nc2ccc(-c3ccc(-c4ccc(-c5cnc([C@@H]6[C@H]7CC[C@H](C7)N6C(=O)[C@@H](NC(=O)OC)C(C)C)[nH]5)cc4)cc3)cc2[nH]1)C(C)C` has an EC50 of 0.0213 nM.

In the case of `COC(=O)N[C@H](C(=O)N1CCC[C@H]1c1ncc(-c2ccc(-c3ccc(-c4cnc([C@@H]5CCCN5C(=O)[C@@H](NC(=O)OC)C(C)C)[nH]4)cc3C#N)cc2)[nH]1)C(C)C`, the EC50 is reported as 0.0158 nM.

Work on `COC(=O)N[C@H](C(=O)N1CCC[C@H]1c1ncc(C#Cc2ccc3cc(-c4cnc([C@@H]5CCCN5C(=O)[C@@H](NC(=O)OC)C(C)C)[nH]4)ccc3c2)[nH]1)C(C)C` yielded an EC50 of 0.0106 nM.

Molecule `COC(=O)N[C@H](C(=O)N1CCC[C@H]1c1nc2ccc(C#CC#Cc3ccc4nc([C@@H]5CCCN5C(=O)[C@@H](NC(=O)OC)C(C)C)[nH]c4c3)cc2[nH]1)C(C)C` has an EC50 of 0.0261 nM.

Work on `COC(=O)N[C@H](C(=O)N1CCC[C@H]1c1ncc(-c2ccc(-c3ccc(-c4cnc([C@H](C)N5CCC[C@@H](NC(=O)OC)C5=O)[nH]4)cc3)cc2)[nH]1)C(C)C` yielded an EC50 of 0.661 nM.

`COC(=O)N[C@H](C(=O)N1CCC[C@H]1c1nc2ccc(-c3ccc4cc(-c5ccc6nc([C@@H]7CCCN7C(=O)[C@@H](NC(=O)OC)C(C)C)[nH]c6c5)ccc4c3)cc2[nH]1)C(C)C` was tested, and the EC50 was < 0.0041 nM.

Molecule `COC(=O)N[C@H](C(=O)N1CCC[C@H]1c1ncc(-c2ccc3c(c2)COCc2cc(-c4cnc([C@@H]5[C@H]6CC[C@H](C6)N5C(=O)[C@@H](NC(=O)OC)C(C)C)[nH]4)ccc2-3)[nH]1)C(C)C` has an EC50 of 0.0221 nM.

With `COC(=O)N[C@H](C(=O)N1CCC[C@H]1c1ncc(-c2ccc3cc(-c4ccc5cc(-c6cnc([C@@H]7CCCN7C(=O)[C@@H](NC(=O)OC)C(C)C)[nH]6)ccc5c4)ccc3c2)[nH]1)C(C)C` the EC50 was 0.0239 nM.

With `COC(=O)N[C@H](C(=O)N1CCC[C@H]1c1ncc(-c2ccc(C#Cc3ccc(-c4cnc([C@@H]5CN(CC(F)(F)F)CCN5C(=O)[C@@H](NC(=O)OC)C(C)C)[nH]4)cc3)cc2)[nH]1)C(C)C` the EC50 was 1.51 nM.

`COC(=O)N[C@H](C(=O)N1CCC[C@H]1c1ncc(-c2ccc(C#Cc3ccc(-c4cnc([C@@H]5CN(CC(F)(F)F)CN5C(=O)[C@@H](NC(=O)OC)C(C)C)[nH]4)cc3)cc2)[nH]1)C(C)C` gave an EC50 of 0.0304 nM.

Molecule `COC(=O)N[C@H](C(=O)N1CCC[C@H]1c1ncc(-c2ccc(-c3ccc4cc(-c5cnc([C@@H]6CCCN6C(=O)[C@@H](NC(=O)OC)C(C)C)[nH]5)ccc4c3)cc2)[nH]1)C(C)C` has an EC50 of 0.0047 nM.

In the case of `COC(=O)N[C@H](C(=O)N1CCC[C@H]1c1ncc(-c2ccc3c(c2)Sc2cc(-c4cnc([C@@H]5CCCN5C(=O)[C@@H](NC(=O)OC)C(C)C)[nH]4)ccc2S3)[nH]1)C(C)C`, the EC50 is reported as 0.349 nM.
